“Also recorded” adds a separate entry of the source.
Legend:
[1] = tested on: HLA-DRB1*0101, *0301, *0401, *0701, *1101, *1301 and *1501 alleles; assay: In vitro HLA DRB1 binding assay, panel of seven alleles; parameters: species or system human
Experimental: The six FV peptides were tested for in vitro binding to HLA-DRB1*0101, *0301, *0401, *0701, *1101, *1301 and *1501 alleles.

[2] = tested on: CD4+CD25+FoxP3+ regulatory T cells; format: cell-based, human
[3] = tested on: CD4+ effector memory T cells; assay: Suppression of Tetanus Toxoid stimulated CD4+ effector T cells in PBMC; format: cell-based, human
Experimental: Previously harvested and frozen PBMC were thawed and suspended in conditioned chRPMI (3.3×10^6 cells/mL) by conventional means. Cells were stained with CFSE (Cat #: 65-0850-84, Affymetrix, Santa Clara, Calif.) and plated at 300,000 cells per well. Plates were incubated overnight (37° C. in 5% CO2). […] Previous titration experiments performed at EpiVax (EpiVax, Providence, R.I.) have established that stimulation with 0.5 μg/ml Tetanus Toxoid (TT) (Astarte Biologics, Bothell, Wash.) elicits a measurable CD4+ effector memory T cells response in PBMC drawn from healthy control donors (Rhode Island Blood Center, Providence, R.I.). Tetanus Toxoid stock (100 μg/mL) (Astarte Biologics, Bothell, Wash.) was diluted in conditioned chRPMI yielding a working concentration of 1 ug/mL. […] All plates were then incubated for six additional days. On assay day five, 100 μL of supernatant was removed from each well and replaced with freshly conditioned chRPMI.
On assay day seven, cells were removed from incubation. Cells were labeled for live/dead discrimination, for surface markers CD127, CCR7, CD4, CD45RA, and CD25 and for intracellular FoxP3. Stained cells were further prepared for FACS analysis by conventional means. Cells were first gated to eliminate aggregates and dead cells. Live cells were gated for CD4 T cells and all subsequent analysis was done on this population. The activated Teffector population was identified as the CD4+/CD25-high/FoxP3-intermediate (CD4+/CD25^1/FoxP3int) (FIG. 8A).
Proliferation of CD4+/CD25-high (CD4^+/CD25^hi) T cells was estimated from the dilution of the CFSE stain (Cat #: 65-0850-84, Affymetrix, Santa Clara, Calif.) and % proliferation determined by the CFSE-low (CFSEL^lo) population (FIG. 8B).

[4] = tested on: CD4+ T cells in PBMCs from healthy donors; assay: Tetanus Toxoid Bystander Suppression Assay (TTBSA); format: cell-based, human
HLA DRB1*0401 = HLA DRB1*0401 (Homo sapiens, UniProt P01903+P01911, A100K/A169T/F76Y/I96L/K127E/L162R/M171V/N62H/P40V/Q125Y/R42H/S133A/S149N/S66Y/V115G/V209L/W38E); assay: HLA DRB1 (IC50) | *0401
HLA DRB1*0701 = HLA DRB1*0701 (Homo sapiens, UniProt P01903+P01911, A100R/A102G/A103Q/D57E/D86V/E43K/F76Y/K127E/L162R/M171V/P40G/Q125H/Q99D/R33Q/R42Y/R54Q/S133A/S66F/T210M/V115G/Y107V/Y59L/Y89S); assay: HLA DRB1 (IC50) | *0701
HLA DRB1*1101 = HLA DRB1*1101 (Homo sapiens, UniProt P01903+P01911, A100R/A169T/A87E/I96F/K41T/L162R/M171V/P40S/Q125H/Q178H/Q39Y/Q99D/R42S/S66Y/T262R/V115G/W38E); assay: HLA DRB1 (IC50) | *1101
human DR molecules = conditions: cited from earlier work
[5] = tested on: PBMCs from lupus patients; conditions: cited from earlier work

Sequence of HLA DRB1*1101 (P01903 26-254 limits assumed, other chains not shown): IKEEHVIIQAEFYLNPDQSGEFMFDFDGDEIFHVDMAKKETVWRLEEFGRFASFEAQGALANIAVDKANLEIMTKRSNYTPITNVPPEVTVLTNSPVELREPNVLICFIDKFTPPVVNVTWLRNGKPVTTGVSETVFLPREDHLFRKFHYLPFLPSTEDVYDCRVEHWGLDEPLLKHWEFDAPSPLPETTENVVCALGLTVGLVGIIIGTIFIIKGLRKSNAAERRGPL

CC[C@H](C)[C@H](NC(=O)[C@H](CO)NC(=O)[C@H](Cc1ccc(O)cc1)NC(=O)[C@@H]1CCCN1C(=O)[C@H](CCCNC(=N)N)NC(=O)[C@H](CO)NC(=O)[C@H](C)NC(=O)[C@H](CCSC)NC(=O)[C@H](CC(N)=O)NC(=O)[C@H](CCCCN)NC(=O)[C@H](Cc1ccccc1)NC(=O)[C@@H](NC(=O)[C@@H](NC(=O)[C@H](CCCCN)NC(C)=O)[C@@H](C)CC)C(C)C)C(=O)N[C@@H](Cc1ccc(O)cc1)C(N)=O [SEQ ID NO: 3]
binding affinity to HLA DR alleles (in words) ([1]; across the alleles tested): strong affinity
breadth of binding to HLA DRB1 alleles ([1]; seven alleles, listed as FV432): binding to nearly all of the HLA DRB1 alleles tested; also recorded: bind to multiple HLA DRB1 alleles
relative proportion of highly proliferative regulatory T cells (CFSE low FoxP3+) among CD25+ Granzyme B+ CD4+ T cells [2]: no significant effect
activated (CD25 high) proliferating (CFSE low) CD4 T cells stimulated by Tetanus Toxoid [3]: no significant inhibitory effect
activated effector CD4+ T cells (CD4+/CD25-high/FoxP3-intermediate) reacting to Tetanus Toxoid [3]: no appreciable effect
proliferation of CD4− cells ([3]; FIG. 11): little inhibitory effect
proliferation of total CD4+ T cells (CFSE low) ([3]; donor 114, dose-dependent): little to no effect
inhibition of the CD4+ T memory response / T effector proliferation in the TTBSA [4]: did not inhibit

CC[C@H](C)[C@H](NC(=O)[C@@H](NC(=O)[C@H](CC(C)C)NC(=O)[C@@H](NC(=O)[C@H](Cc1ccccc1)NC(=O)[C@H](CC(=O)O)NC(=O)[C@@H](NC(=O)CN)[C@@H](C)O)[C@@H](C)O)[C@@H](C)O)C(=O)N[C@@H](CO)C(=O)N[C@@H](CO)C(=O)N[C@@H](CC(C)C)C(=O)N[C@@H](CCC(N)=O)C(=O)N1CCC[C@H]1C(=O)N[C@@H](CCC(=O)O)C(=O)N[C@@H](CC(=O)O)C(=O)O [SEQ ID NO: 117 | Tregitope 084, GTDFTLTISSLQPED]
IC50 (HLA DRB1*0401): < 1 µM
IC50 (HLA DRB1*0701): < 1 µM
IC50 (HLA DRB1*1101): 100 µM

RIHMVYSKRSGKPRGYAFIEY (listed as Homo sapiens) [peptide 131-151, residues 131-151 of the spliceosome protein]
binding to human DR molecules (human DR molecules): binds to a large panel of human DR molecules
randomly selected lupus patients whose PBMCs contain T cells that proliferate in response to the peptide [5]: 40%

Reference: patent US20230279072A1, “REGULATORY T CELL EPITOPES” (EpiVax Inc., priority 2020, published 2023)
